Source: patent publication US9302991B2, “Arylamide derivatives as TTX-S blockers” (RaQualia Pharma Inc., priority 2010, dated 2016)
pIC50: −log10 of the molar value.

Target: T1, human Nav1.7 channels (Homo sapiens, UniProt Q15858)
T1 construct: expressed in transfected cells; host or cells: CHO
Experiment: FRET assay, human Nav1.7 (EFS on FDSS)
Format: cell-based
Conditions: CHO cells expressing human Nav1.7, read-out: IC50 against Nav1.7
Method: The inhibitory activities of compounds against voltage gated sodium channels are determined by methodology well known in the art.
The ability of the aryl substituted carboxamide derivatives of the formula (I) to inhibit the NaV1.3, Nav1.7 and Nav1.5 channels is measured by Fluorescence Resonance Energy Transfer (FRET) assay and electrophysiology assay described below.
This screen is used to determine the effects of compounds on human Nav1.3, human Nav1.7, and human Nav1.5 channels, utilising electrical field stimulation (EFS) system in 96-well plate format on FDSS (Hamamatsu Photonics) platform. The change of membrane potential is monitored with FRET dye pair, oxonol (DiSBAC2(3)) and coumarin (CC2-DMPE).
CHO cells expressing human Nav1.7 channels are grown in T225 flasks, in a 5% CO2 humidified incubator to about 80% confluence. Media composition consists of HAM/F12 with Glutamax 1.10% FCS, 100 units/mL Penicillin and 100 microgram/mL Hygromycin.
Protocol: • Seed each cell lines (1×10^5 cells/well) into poly-D-lysine coated 96-well plates prior to experimentation. • Incubate at 37° C. in 5% CO2 for 24 hours. • Wash each well with assay buffer (140 mM NaCl, 4.5 mM KCl, 10 mM D-Glucose, 2 mM CaCl2, 1 mM MgCl2, 10 mM HEPES, pH 7.4 adjusted with NaOH) twice. • Add 1st loading solution containing 10 microM CC2-DMPE and 0.06% Pluronic F-127 in assay buffer. • Incubate the plate at room temperature in dark for 1 hour. • Remove 1st loading solution and added 2nd loading solution containing 15 microM DiSBAC2(3), 0.555 mM VABSC-1 and 0.004% Pluronic F-127 in assay buffer. • Place the plate under the dark at room temperature for 25 minutes. • Add compound solutions into the assay plate. • Set the assay plate in FDSS and placed an EFS device on the plate. • Measure EFS-induced fluorescent response by FDSS.
The data are analyzed and reported as normalized ratios of intensities measured at […]. The process of calculating these ratios is performed as follows:
This analysis is performed using a computerized specific program designed for FDSS generated data. Fluorescence ratio values are plotted using XLfit to determine an IC50 value for each compound.

T1 sequence (Q15858 whole entry): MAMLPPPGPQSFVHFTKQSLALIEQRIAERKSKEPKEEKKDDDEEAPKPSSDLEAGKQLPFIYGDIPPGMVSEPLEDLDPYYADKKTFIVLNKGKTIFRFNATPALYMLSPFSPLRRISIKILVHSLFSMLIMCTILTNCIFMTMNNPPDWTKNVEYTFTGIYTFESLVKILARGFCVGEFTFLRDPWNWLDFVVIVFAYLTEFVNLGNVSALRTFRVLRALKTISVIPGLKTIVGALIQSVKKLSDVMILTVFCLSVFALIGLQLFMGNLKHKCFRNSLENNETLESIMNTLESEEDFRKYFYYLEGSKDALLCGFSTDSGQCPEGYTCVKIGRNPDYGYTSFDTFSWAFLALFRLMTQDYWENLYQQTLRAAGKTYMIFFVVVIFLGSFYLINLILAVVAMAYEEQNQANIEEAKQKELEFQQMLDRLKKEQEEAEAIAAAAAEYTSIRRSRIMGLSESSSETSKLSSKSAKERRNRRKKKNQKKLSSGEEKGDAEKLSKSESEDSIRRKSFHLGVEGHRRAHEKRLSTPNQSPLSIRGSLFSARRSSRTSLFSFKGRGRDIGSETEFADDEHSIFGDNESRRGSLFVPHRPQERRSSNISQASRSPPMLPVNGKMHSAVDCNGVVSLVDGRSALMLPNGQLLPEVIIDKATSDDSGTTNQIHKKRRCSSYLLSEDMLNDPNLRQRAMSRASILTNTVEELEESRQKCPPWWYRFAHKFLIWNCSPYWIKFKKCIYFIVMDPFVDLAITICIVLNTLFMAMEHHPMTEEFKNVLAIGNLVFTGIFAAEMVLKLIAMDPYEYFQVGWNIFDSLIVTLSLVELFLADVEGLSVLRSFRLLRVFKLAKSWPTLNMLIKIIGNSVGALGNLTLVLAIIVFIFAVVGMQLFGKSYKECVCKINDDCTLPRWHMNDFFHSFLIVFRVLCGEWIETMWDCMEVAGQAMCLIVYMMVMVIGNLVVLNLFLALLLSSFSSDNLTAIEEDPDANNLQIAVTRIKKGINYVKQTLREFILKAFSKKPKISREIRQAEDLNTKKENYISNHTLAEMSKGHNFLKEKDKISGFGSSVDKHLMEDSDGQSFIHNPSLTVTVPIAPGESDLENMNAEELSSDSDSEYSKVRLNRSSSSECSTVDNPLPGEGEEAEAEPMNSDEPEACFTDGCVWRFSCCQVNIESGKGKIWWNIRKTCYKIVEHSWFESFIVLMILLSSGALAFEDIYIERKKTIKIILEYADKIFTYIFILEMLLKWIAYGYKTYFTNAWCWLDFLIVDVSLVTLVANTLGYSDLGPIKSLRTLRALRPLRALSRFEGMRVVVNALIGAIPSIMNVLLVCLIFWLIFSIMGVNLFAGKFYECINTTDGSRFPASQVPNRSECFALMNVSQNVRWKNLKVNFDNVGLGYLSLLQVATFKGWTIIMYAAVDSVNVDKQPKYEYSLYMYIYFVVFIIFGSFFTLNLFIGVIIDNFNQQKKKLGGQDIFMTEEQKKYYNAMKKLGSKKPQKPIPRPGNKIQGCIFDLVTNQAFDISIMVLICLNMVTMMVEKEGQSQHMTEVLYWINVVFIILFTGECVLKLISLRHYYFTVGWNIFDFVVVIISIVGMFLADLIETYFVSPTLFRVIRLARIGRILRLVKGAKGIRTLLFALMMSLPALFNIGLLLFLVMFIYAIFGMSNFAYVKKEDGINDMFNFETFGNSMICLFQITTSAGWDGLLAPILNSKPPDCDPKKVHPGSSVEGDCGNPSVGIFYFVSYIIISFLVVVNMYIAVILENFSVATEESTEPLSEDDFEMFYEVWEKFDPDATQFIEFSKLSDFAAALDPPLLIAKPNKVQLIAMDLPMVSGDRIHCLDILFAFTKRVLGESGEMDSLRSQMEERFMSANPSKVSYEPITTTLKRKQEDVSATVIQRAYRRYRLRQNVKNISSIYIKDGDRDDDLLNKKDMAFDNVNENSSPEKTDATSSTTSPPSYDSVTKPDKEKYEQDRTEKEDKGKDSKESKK

pIC50, > 6.00:
Cc1cc(C(=O)NCc2cccc(C(F)(F)F)c2C)cc(NC(=O)C(C)C)n1 [Example 879, 2-isobutyramido-6-methyl-N-(2-methyl-3-(trifluoromethyl)benzyl)isonicotinamide]
CCC(=O)Nc1cc(C(=O)NC(C)c2ccc(OCC(C)(F)F)nc2)ccn1 (single isomer, unassigned) [Example 781, N-(1-(6-(2,2-difluoropropoxy)pyridin-3-yl)ethyl)-2-propionamidoisonicotinamide]
COc1cc(CNC(=O)c2cc(C)nc(NC(C)=O)c2)cnc1OCC(F)(F)F [Example 272, 2-acetamido-N-((5-methoxy-6-(2,2,2-trifluoroethoxy)pyridin-3-yl)methyl)-6-methylisonicotinamide]
Cc1cc(C(=O)NCc2cnc(OCC(F)F)c(C)c2)cc(NC(=O)C2CC2)n1 [Example 851, 2-(cyclopropanecarboxamido)-N-((6-(2,2-difluoroethoxy)-5-methylpyridin-3-yl)methyl)-6-methylisonicotinamide]
Cc1cc(C(=O)NC(C)c2cccc(OC(F)(F)F)c2)cc(NC(=O)C(C)(C)O)n1 (single isomer, unassigned) [Example 421, 2-(2-hydroxy-2-methylpropanamido)-6-methyl-N-(1-(3-(trifluoromethoxy)phenyl)ethyl)isonicotinamide]
COc1nc(OCC(F)F)ccc1C(C)NC(=O)c1ccnc(NC(C)=O)c1 (single isomer, unassigned) [Example 1160, 2-acetamido-N-(1-(6-(2,2-difluoroethoxy)-2-methoxypyridin-3-yl)ethyl)isonicotinamide]
CC(=O)Nc1cc(C(=O)NCc2ccc(OCC(F)(F)F)nc2N2CCCCC2)ccn1 [Example 302, 2-acetamido-N-((2-(piperidin-1-yl)-6-(2,2,2-trifluoroethoxy)pyridin-3-yl)methyl)isonicotinamide]
CCC(=O)Nc1cc(C(=O)NCc2ccc(OCC(F)(F)F)nc2C)cc(C)n1 [Example 168, 2-methyl-N-((2-methyl-6-(2,2,2-trifluoroethoxy)pyridin-3-yl)methyl)-6-propionamidoisonicotinamide]
COc1cc(C(C)NC(=O)c2cc(C)nc(NC(C)=O)c2)cnc1OCC(F)(F)F (single isomer, unassigned) [Example 330, 2-acetamido-N-(1-(5-methoxy-6-(2,2,2-trifluoroethoxy)pyridin-3-yl)ethyl)-6-methylisonicotinamide]
Cc1cc(C(=O)NCc2cnc(OCC(F)F)c(Cl)c2)cc(NC(=O)C(C)C)n1 [Example 620, N-((5-chloro-6-(2,2-difluoroethoxy)pyridin-3-yl)methyl)-2-isobutyramido-6-methylisonicotinamide]
CCC(=O)Nc1cc(C(=O)NC(C)c2cnc(OCC(F)(F)F)c(OC)c2)cc(C)n1 (single isomer, unassigned) [Example 144, N-(1-(5-methoxy-6-(2,2,2-trifluoroethoxy)pyridin-3-yl)ethyl)-2-methyl-6-propionamidoisonicotinamide]
CCC(=O)Nc1cc(C(=O)NC(C)c2cnc(OCC(F)(F)F)c(F)c2)cc(C)n1 (single isomer, unassigned) [Example 131, N-(1-(5-fluoro-6-(2,2,2-trifluoroethoxy)pyridin-3-yl)ethyl)-2-methyl-6-propionamidoisonicotinamide]
CC(=O)Nc1cc(C(=O)NCc2cnc(OCC(F)F)c(Cl)c2)cc(C)n1 [Example 706, 2-acetamido-N-((5-chloro-6-(2,2-difluoroethoxy)pyridin-3-yl)methyl)-6-methylisonicotinamide]
O=C(NCc1cnc(OCC(F)F)c(Cl)c1)c1ccnc(NC(=O)C2CC2)c1 [Example 705, N-((5-chloro-6-(2,2-difluoroethoxy)pyridin-3-yl)methyl)-2-(cyclopropanecarboxamido)isonicotinamide]
CC(C)C(=O)Nc1cc(C(=O)NC(C)c2ccc(OCC(C)(F)F)nc2)ccn1 (single isomer, unassigned) [Example 785, N-(1-(6-(2,2-difluoropropoxy)pyridin-3-yl)ethyl)-2-isobutyramidoisonicotinamide]
CC(NC(=O)c1ccnc(NC(=O)C2CC2)c1)c1cnc(OCC(F)(F)F)c(Cl)c1 (single isomer, unassigned) [Example 79, N-(1-(5-chloro-6-(2,2,2-trifluoroethoxy)pyridin-3-yl)ethyl)-2-(cyclopropanecarboxamido)isonicotinamide]
Cc1cc(C(=O)NC(C)c2ccc(OCC(F)F)c(C)c2)cc(NC(=O)C2CC2)n1 (single isomer, unassigned) [Example 866, 2-(cyclopropanecarboxamido)-N-(1-(4-(2,2-difluoroethoxy)-3-methylphenyl)ethyl)-6-methylisonicotinamide]
CCc1cc(C(C)NC(=O)c2ccnc(NC(=O)C3CC3)n2)cnc1OCC(F)F (single isomer, unassigned) [Example 890, 2-(cyclopropanecarboxamido)-N-(1-(6-(2,2-difluoroethoxy)-5-ethylpyridin-3-yl)ethyl)pyrimidine-4-carboxamide]
Cc1cc(C(=O)NC(C)c2ccc(OCC(F)F)c(C)c2)nc(NC(=O)C2CC2)n1 (single isomer, unassigned) [Example 1075, 2-(cyclopropanecarboxamido)-N-(1-(4-(2,2-difluoroethoxy)-3-methylphenyl)ethyl)-6-methylpyrimidine-4-carboxamide]
CC(NC(=O)c1ccnc(NC(=O)C2CC2)c1)c1ccc(OCC(F)(F)C(F)F)nc1 (single isomer, unassigned) [Example 922, 2-(cyclopropanecarboxamido)-N-(1-(6-(2,2,3,3-tetrafluoropropoxy)pyridin-3-yl)ethyl)isonicotinamide]
Cc1cc(C(=O)NCc2ccc(OCC(F)(F)F)nc2C)cc(NC(=O)C(C)C)n1 [Example 493, 2-isobutyramido-6-methyl-N-((2-methyl-6-(2,2,2-trifluoroethoxy)pyridin-3-yl)methyl)isonicotinamide]
CC(C)C(=O)Nc1cc(C(=O)NC(C)c2cccc(OCC(F)(F)F)c2)ccn1 (single isomer, unassigned) [Example 561, 2-isobutyramido-N-(1-(3-(2,2,2-trifluoroethoxy)phenyl)ethyl)isonicotinamide]
CC(=O)Nc1cc(C(=O)NC(C)c2cnc(OCC(F)(F)F)c(C)c2)cc(C)n1 (single isomer, unassigned) [Example 379, 2-acetamido-6-methyl-N-(1-(5-methyl-6-(2,2,2-trifluoroethoxy)pyridin-3-yl)ethyl)isonicotinamide]
CC(=O)Nc1cc(C(=O)NCc2cccc(C(F)(F)F)c2)cc(C)n1 [Example 532, 2-acetamido-6-methyl-N-(3-(trifluoromethyl)benzyl)isonicotinamide]
O=C(NCc1cccc(C(F)(F)F)c1)c1ccnc(NC(=O)C2CC2)n1 [Example 404, 2-(cyclopropanecarboxamido)-N-(3-(trifluoromethyl)benzyl)pyrimidine-4-carboxamide]
CCC(=O)Nc1cc(C(=O)NCc2cccc(C(F)(F)F)c2F)ccn1 [Example 1012, N-(2-fluoro-3-(trifluoromethyl)benzyl)-2-propionamidoisonicotinamide]
COc1nc(OCC(F)(F)F)ccc1CN(C)C(=O)c1cc(C)nc(NC(C)=O)c1 [Example 290, 2-acetamido-N-((2-methoxy-6-(2,2,2-trifluoroethoxy)pyridin-3-yl)methyl)-N,6-dimethylisonicotinamide]
Cc1cc(C(=O)NC(C)c2ccc(OCC(F)(F)F)nc2)cc(NC(=O)C2CC2)n1 (single isomer, unassigned) [Example 61, 2-(cyclopropanecarboxamido)-6-methyl-N-(1-(6-(2,2,2-trifluoroethoxy)pyridin-3-yl)ethyl)isonicotinamide]
Cc1cc(C(=O)NCc2cnc(OCC(F)(F)F)c(Br)c2)cc(NC(=O)C(C)C)n1 [Example 901, N-((5-bromo-6-(2,2,2-trifluoroethoxy)pyridin-3-yl)methyl)-2-isobutyramido-6-methylisonicotinamide]
CCC(=O)Nc1cc(C(=O)NC(C)c2cnc(OCC(F)(F)F)c(F)c2)ccn1 (single isomer, unassigned) [Example 74, N-(1-(5-fluoro-6-(2,2,2-trifluoroethoxy)pyridin-3-yl)ethyl)-2-propionamidoisonicotinamide]
